The values below come from BindingDB's records for doi:10.1016/j.bmcl.2017.07.009 (Sichuan University and Collaborative Innovation Center, 2017).

Some results are limits rather than exact numbers.

This assay deals with Tyrosine-protein kinase SYK (Homo sapiens) (UniProt P43405). In words: Inhibition of recombinant human full length N-terminal His6-tagged SYK expressed in baculovirus Sf21 insect cells preincubated for 5 mins followed by substrate addition after 30 to 60 mins in presence of ATP by fluorescence assay.

`C=CS(=O)(=O)N1CCC[C@@H]1Cn1cc(-c2ccc3c(c2)OCO3)c2c(N)ncnc21`: the IC50 – broadly, the point on the concentration scale where inhibition reaches its midpoint – is over 10 µM.
